Results: patent publication US12128035B2, “Activating pyruvate kinase R” (Novo Nordisk Health Care AG, priority 2021, dated 2024)

What was measured:
Format in all cases: in vivo, human
[1] = Phase 1 SAD/MAD: plasma pharmacokinetics in healthy volunteers; details: 14 days of dosing in healthy subjects
Text: This is a first-in-human (FIH), Phase 1 study of Compound 1 that will characterize the safety, PK, and PD of Compound 1 after a single dose and after repeated dosing first in healthy adult volunteers and then in adolescents or adults with sickle cell disease. Initially, a dose range of Compound 1 in single ascending dose (SAD) escalation cohorts will be explored in healthy subjects. Enrollment of healthy subjects into 2-week multiple ascending dose (MAD) escalation cohorts will be initiated once the safety and PK from at least two SAD cohorts is available to inform the doses for the 2-week MAD portion of the study. The MAD cohorts will then run in parallel to the single dose cohorts. A single dose cohort is planned to understand food effects (FE) on the PK of Compound 1. […]
In this study, SAD/MAD cohorts are randomized (3 to 1) to receive Compound 1 or placebo (P). Compound 1 was evaluated first in 4 healthy SAD cohorts and 4 healthy MAD (14-day dosing period) cohorts. Based on the safety, and PK/PD profile from HS, Compound 1 is then evaluated in 1 SCD SAD cohort and 2 SCD MAD cohorts. Specifically, based on the safety and pharmacokinetic/pharmacodynamics (PK/PD) profile in healthy volunteer studies, Compound 1 is evaluated in patients (pts) with SCD, first in a single dose (SD or SAD) cohort and then in multiple-dose (MD or MAD) cohorts (14-day and 12-week). […]

[2] = Phase 1 food effect cohort in healthy subjects; details: 400 mg with and without food
Method: Four healthy SAD cohorts were evaluated at doses of 200, 400, 700, and 1000 mg, and four healthy MAD cohorts received 200 to 600 mg total daily doses for 14 days at QD or BID dosing (100 mg BID, 200 mg BID, 300 mg BID, and 400 mg QD). In the food effect (FE) cohort, 10 healthy subjects received 400 mg of Compound 1 QD with and without food. […] FIG. 22 illustrates plasma Compound 1 pharmacokinetics in healthy volunteers following a single dose. […] No significant changes in exposure were observed after 14 days of dosing. Compound 1 exposure under fed/fasted conditions was similar.

ATP blood levels = assay: Phase 1: blood ATP in SCD patients
Method: In this study, SAD/MAD cohorts are randomized (3 to 1) to receive Compound 1 or placebo (P). Compound 1 was evaluated first in 4 healthy SAD cohorts and 4 healthy MAD (14-day dosing period) cohorts. Based on the safety, and PK/PD profile from HS, Compound 1 is then evaluated in 1 SCD SAD cohort and 2 SCD MAD cohorts. Specifically, based on the safety and pharmacokinetic/pharmacodynamics (PK/PD) profile in healthy volunteer studies, Compound 1 is evaluated in patients (pts) with SCD, first in a single dose (SD or SAD) cohort and then in multiple-dose (MD or MAD) cohorts (14-day and 12-week). Safety assessments include AEs, vital signs, ECGs and laboratory parameters. PK/PD blood sampling was performed on Day 1 (SAD/MAD) and Day 14 (MAD) and up to 72 h after the last dose and at the end-of-study visit. PD parameters included 2,3-DPG, ATP, and p50 in all cohorts with additional PD studies (including oxygen scan) performed only in the SCD cohorts. PD parameters included 2,3-DPG, ATP, p50, RBC deformability with controlled deoxygenation and reoxygenation (Lorrca® oxygen scan) and varying osmolality (Lorrca® osmoscan)). To maintain study blind, pt identifiers were removed when needed.
The onset of the increase in ATP blood levels after a single 700 mg dose of Compound 1 was faster in SCD patients than in healthy volunteers, while the onset of the decrease in 2,3-DPG blood levels was slower.
The following procedures are employed for the analysis of ATP and 2,3-DPG in human whole blood K2EDTA using a protein precipitation extraction procedure and analysis by LC-MS/MS.
The following procedures are used for sample extraction prior to analysis via LC-MS/MS. 15.0 μL of the calibration standards, quality controls, matrix blanks, and samples are aliquoted into a 96-well plate. 50.0 μL of the internal standard spiking solution is added to all samples on the plate, with the exception of the matrix blank samples; 50.0 μL of water is added to the matrix blank samples. Subsequently, 150 μL of water is added to all samples on the plate. The plate is then covered and agitated by vortex at high speed for ten minutes, after which 750 μL of methanol is added to all samples on the plate. The plate is covered and agitated by vortex for approximately 1 minute. The plate is then centrifuged at approximately 3500 RPM at approximately 4° C. for five minutes. After centrifugation, a liquid handler is used to transfer 50 μL of each sample to a new 96-well plate, and 200 μL of acetonitrile is added to all samples on the plate. The newly prepared plate is covered and agitated by vortex for approximately 1 minute. The plate is then centrifuged at approximately 3500 RPM at approximately 4° C. for 2 minutes.

[3] = Phase 1: hematologic and hemolytic laboratory parameters in SCD patients; details: SCD single 700 mg dose

## O=C([C@H](CO)c1ccccc1)N1CC2=C(C1)CN(S(=O)(=O)c1cnc3c(c1)OCCO3)C2 (single isomer, unassigned) [Compound 1]
[1]
  clearance on day 1 and day 14: unchanged
[2]
  exposure under fed/fasted conditions: similar
ATP blood levels; SCD 300 mg QD, Day 1, 0 h after first daily dose
  mean percentage change in ATP blood levels: 0%
ATP blood levels; SCD 300 mg QD, Day 1, 24 h after first daily dose
  mean percentage change in ATP blood levels: 14%
ATP blood levels; SCD 300 mg QD, Day 14, 0 h after first daily dose
  mean percentage change in ATP blood levels: 47%
ATP blood levels; SCD 300 mg QD, Day 14, 6 h after first daily dose
  mean percentage change in ATP blood levels: 44%
ATP blood levels; SCD 300 mg QD, Day 14, 24 h after first daily dose
  mean percentage change in ATP blood levels: 45%
ATP blood levels; SCD 300 mg QD, Day 14, 48 h after first daily dose
  mean percentage change in ATP blood levels: 35%
ATP blood levels; SCD single 700 mg, 0 h after dose
  mean percentage change in ATP blood levels: 0%
ATP blood levels; SCD single 700 mg, 6 h after dose
  mean percentage change in ATP blood levels: 14%
ATP blood levels; SCD single 700 mg, 24 h after dose
  mean percentage change in ATP blood levels: 30%
ATP blood levels; SCD single 700 mg, 48 h after dose
  mean percentage change in ATP blood levels: 30%
ATP blood levels; SCD single 700 mg, 72 h after dose
  mean percentage change in ATP blood levels: 32%
ATP blood levels; SCD single 700 mg, FIG. 54A
  lag of maximum increase in blood ATP behind maximum plasma concentration: at least 24 hours
ATP blood levels; SCD, 24 hours after single 700-mg dose, FIG. 46A
  increase in ATP blood concentrations: 30%
[3]; 24 h
  Hb difference versus placebo: ~0.9 g/dL
[3]; 24 hours, range 0.3, 0.9
  increase in Hb: 0.5 g/dL
